Experimental data as given in patent US20090220503A1, “METHOD FOR TREATING CANCERS WITH INCREASED RAS SIGNALING” (THE TRUSTEES OF BOSTON UNIVERSITY, priority 2006, published 2009).

Experiments:
[1] = system: MIA PaCa-2 cells; experiment: MTT cell proliferation assay, MIA PaCa-2; type: cell-based, human; details: MIA PaCa-2 (mutated p21Ras), 48 h, inhibitor concentration as in Table 3
Procedure: (§1) FIGS. 1A-1C show effects of different PKC isoform inhibitors on proliferation of mouse fibroblast cells and human pancreatic cells. Cells were grown to 80% confluence in 96-well plates, then treated with the inhibitors at the concentrations indicated in Table I. The corresponding solvents with equivalent volume were used as vehicle controls. After 48 h treatment, cell proliferation was evaluated by MTT assay. Results are presented as the means ±SD. Statistical significance was determined using a paired Student's t-test, and p-values ≦0.05 were considered significant. […] Nuclear-free lysates containing a total of 400 μg protein from each indicated cell type were used for analysis of Ras activity by Raf-RBD pull down.
(§2) All inhibitors were dissolved in dimethyl sulfoxide for use, and their effects were measured relative to dimethyl sulfoxide (vehicle)-treated controls.
(§3) Cell Culture and Treatment. NIH/3T3 and Balb cell lines were obtained from ATCC (American Type Culture Collection, Rockville, Md.). NIH/3T3-Ras cells were produced by stable transfection of v-Harvey ras, and selected and maintained in 0.5 mg/ml of Geneticin (Gibco BRL, Gaithersburg, Md.). Ki-v-ras-Balb (KBalb) cells were produced by stable infection of Balb with retroviral vector stocks containing v-Kirsten ras, and were selected and maintained with Geneticin. The human pancreatic tumor lines Hs 766s, BxPC-3 and MIA PaCa-2, were obtained from ATCC. All cell lines were maintained in Dulbecco Modified Eagle medium (DMEM) (Gibco BRL) supplemented with 2 mM 1-glutamine, 100 U/ml of penicillin, and 100 μg/ml of streptomycin (Gibco BRL). […] Cell proliferation was assessed using an MTT [3-(4,5-dimethylthiazol-2-yl)-2,5-diphenyltetrazolium bromide] assay (Roche, Mannheim, Germany). […] The optical densities were quantified at a test wavelength of 550 nm and a reference wavelength of 630 nm on a multiwell spectrophotometer. siRNA Knockdown of PKCδ. siRNA duplexes (siRNAs) were obtained from Qiagen (Valencia, Calif.). […]

[2] = system: KBalb cells; experiment: MTT cell proliferation assay, KBalb; type: cell-based, mouse; details: KBalb (mutated p21Ras), 48 h, inhibitor concentration as in Table 3
Procedure: as §1, §2, §3

[3] = system: KBalb cells; experiment: Apoptotic (hypodiploid) fraction by propidium iodide flow cytometry, KBalb; type: cell-based, mouse; details: 60 h
Procedure: (§4) FIGS. 4A-4D show activation of apoptosis by individual p21^Ras-effector pathways. […] Cells were fixed and stained with propidium iodide, and the apoptotic (hypodiploid) fractions were evaluated by PI staining and flow cytometric analysis using the FL2-H channel. Cells transfected with the empty pSG5 vector served as negative controls. […] NIH/3T3 cells were pre-treated for 30 minutes with Ly294002 (10 μM) before rottlerin (20 μM) was added. The apoptotic (hypodiploid) fractions were evaluated 60 h later. […] The apoptotic (hypodiploid) fractions were evaluated 60 h later. Cells were fixed and stained with propidium iodide. DNA fragmentation was analyzed by flow cytometry using the FL2-H channel.
Cell Culture and Treatment. NIH/3T3 and Balb cell lines were obtained from ATCC (American Type Culture Collection, Rockville, Md.). […] Cell proliferation was assessed using an MTT [3-(4,5-dimethylthiazol-2-yl)-2,5-diphenyltetrazolium bromide] assay (Roche, Mannheim, Germany). […] The optical densities were quantified at a test wavelength of 550 nm and a reference wavelength of 630 nm on a multiwell spectrophotometer. siRNA Knockdown of PKCδ. siRNA duplexes (siRNAs) were obtained from Qiagen (Valencia, Calif.). […] PKCδ protein levels were determined by immunoblot analysis. […] PKCδ activity was measured with an assay kit (Upstate Cell Signaling). […]

[4] = system: NIH/3T3 cells; experiment: Apoptotic (hypodiploid) fraction by propidium iodide flow cytometry, NIH/3T3 cells expressing Ras effectors or effector mutants; type: cell-based, mouse
Procedure: as §4
Cell Culture and Treatment. NIH/3T3 and Balb cell lines were obtained from ATCC (American Type Culture Collection, Rockville, Md.). NIH/3T3-Ras cells were produced by stable transfection of v-Harvey ras, and selected and maintained in 0.5 mg/ml of Geneticin (Gibco BRL, Gaithersburg, Md.). Ki-v-ras-Balb (KBalb) cells were produced by stable infection of Balb with retroviral vector stocks containing v-Kirsten ras, and were selected and maintained with Geneticin. The human pancreatic tumor lines Hs 766s, BxPC-3 and MIA PaCa-2, were obtained from ATCC. All cell lines were maintained in Dulbecco Modified Eagle medium (DMEM) (Gibco BRL) supplemented with 2 mM 1-glutamine, 100 U/ml of penicillin, and 100 μg/ml of streptomycin (Gibco BRL). Media was additionally supplemented with 10% DCS (NIH/3T3, NIH/3T3-Ha-v-Ras, Balb/3T3, Ki-v-ras-Balb, and Balb-myc), or 10% FBS (BxPC-3, MIA PaCa-2). Cells were cultured at 37° C. and 5% CO2. Cell Proliferation Assay. Cell proliferation was assessed using an MTT [3-(4,5-dimethylthiazol-2-yl)-2,5-diphenyltetrazolium bromide] assay (Roche, Mannheim, Germany). […] The optical densities were quantified at a test wavelength of 550 nm and a reference wavelength of 630 nm on a multiwell spectrophotometer. siRNA Knockdown of PKCδ. siRNA duplexes (siRNAs) were obtained from Qiagen (Valencia, Calif.). […] PKCδ protein levels were determined by immunoblot analysis. […] PKCδ activity was measured with an assay kit (Upstate Cell Signaling). […] Immunocomplexes were washed three times with the kinase buffer (20 mM Tris-HCl, 10 mM MgCl2, pH 7.5) and then incubated with a PKC-specific peptide substrate, [γ-^33P]ATP, and inhibitors of cAMP-dependent kinase and calmodulin kinase for 10 min at 30° C. ^33P incorporated into the substrate was separated from residual ^33P using p81 filters and subsequently quantified by scintillation counting. β-actin antibody was used as negative control in immunoprecipitations. p21^Ras Activity Assays. […]

[5] = system: PKCδ; experiment: Immunoblot analysis of PKCδ protein levels; type: cell-based; details: 20 μM, 48 h, all cell lines tested
Procedure: (§5) Cell Culture and Treatment. NIH/3T3 and Balb cell lines were obtained from ATCC (American Type Culture Collection, Rockville, Md.). NIH/3T3-Ras cells were produced by stable transfection of v-Harvey ras, and selected and maintained in 0.5 mg/ml of Geneticin (Gibco BRL, Gaithersburg, Md.). Ki-v-ras-Balb (KBalb) cells were produced by stable infection of Balb with retroviral vector stocks containing v-Kirsten ras, and were selected and maintained with Geneticin. The human pancreatic tumor lines Hs 766s, BxPC-3 and MIA PaCa-2, were obtained from ATCC. All cell lines were maintained in Dulbecco Modified Eagle medium (DMEM) (Gibco BRL) supplemented with 2 mM 1-glutamine, 100 U/ml of penicillin, and 100 μg/ml of streptomycin (Gibco BRL). Media was additionally supplemented with 10% DCS (NIH/3T3, NIH/3T3-Ha-v-Ras, Balb/3T3, Ki-v-ras-Balb, and Balb-myc), or 10% FBS (BxPC-3, MIA PaCa-2). Cells were cultured at 37° C. and 5% CO2. Cell Proliferation Assay. Cell proliferation was assessed using an MTT [3-(4,5-dimethylthiazol-2-yl)-2,5-diphenyltetrazolium bromide] assay (Roche, Mannheim, Germany). […] The optical densities were quantified at a test wavelength of 550 nm and a reference wavelength of 630 nm on a multiwell spectrophotometer. siRNA Knockdown of PKCδ. siRNA duplexes (siRNAs) were obtained from Qiagen (Valencia, Calif.). […]

[6] = system: PKCδ; type: cell-based
Procedure: as §5

[7] = system: Balb cells; experiment: MTT cell proliferation assay, Balb; type: cell-based, mouse; details: Balb (wild-type p21Ras), 48 h, 20 μM
Procedure: as §1, §2
(§6) Cell Culture and Treatment. NIH/3T3 and Balb cell lines were obtained from ATCC (American Type Culture Collection, Rockville, Md.). […] Cell proliferation was assessed using an MTT [3-(4,5-dimethylthiazol-2-yl)-2,5-diphenyltetrazolium bromide] assay (Roche, Mannheim, Germany). […] The optical densities were quantified at a test wavelength of 550 nm and a reference wavelength of 630 nm on a multiwell spectrophotometer. siRNA Knockdown of PKCδ. siRNA duplexes (siRNAs) were obtained from Qiagen (Valencia, Calif.). […]

[8] = system: Hs766T cells; experiment: MTT cell proliferation assay, Hs766T; type: cell-based, human; details: Hs766T (wild-type p21Ras), 48 h, 20 μM
Procedure: as §1, §2, §6

Structure (SMILES): CN(C)CCCn1cc(C2=C(c3c[nH]c4ccccc34)C(=O)NC2=O)c2ccccc21 [Bis-1, Bisindolylmaleimide I]
- cell proliferation (MTT) [1]: strongly suppressed the growth
- cell proliferation (MTT) [2]: strongly suppressed the growth

Structure (SMILES): CCCCCCCCCCCCCCCCOCC(CO)OC (stereo not shown) [HMG]
- cell proliferation (MTT) [1]: strongly suppressed the growth
- cell proliferation (MTT) [2]: strongly suppressed the growth

Structure (SMILES): O=c1cc(N2CCOCC2)oc2c(-c3ccccc3)cccc12 [LY294002]
- apoptosis induced by PKCδ inhibition blocked ([3]; KBalb cells, pre-treatment before rottlerin 20 μM): 50%
- decrease of apoptosis induced by rottlerin ([4]; NIH/3T3 p110-CAAX, 20 μM pre-treatment 30 min, then rottlerin 20 μM 60 hours): ~50%

Structure (SMILES): COc1cccc(-c2cc(=O)c3ccccc3o2)c1N [PD98095]
- suppression of p21Ras-dependent apoptosis ([3]; cells with activated p21Ras, 10 μM pre-treatment, rottlerin 20 μM, lesser degree than PI3K-inhibition): suppressed p21^Ras-dependent apoptosis to some extent

Structure (SMILES): CC(=O)c1c(O)c(C)c(O)c(Cc2c(O)c3c(c(C(=O)/C=C/c4ccccc4)c2O)OC(C)(C)C=C3)c1O [rottlerin, Rottlerin]
- PKCδ protein levels after rottlerin [5]: suppressed PKCδ levels somewhat
- apoptosis in cells expressing p21Ras effector mutants S35, G37, C40 ([4]; 20 μM, 60 h, C40 greatest): stimulated apoptosis to some extent
- apoptosis in cells expressing Raf or Ral-GEF effectors ([4]; NIH/3T3 Raf-22W, RIF-CAAX, rottlerin 20 μM, 60 h): induced little apoptosis
- apoptotic frequency ([4]; NIH/3T3 with activated PI3K (p110-CAAX), rottlerin 20 μM, 60 h): 38.22%
- PKCδ activity blocked [6]: greater than 95%
- cell proliferation (MTT) [7]: stimulated proliferation
- cell proliferation (MTT) [8]: stimulated proliferation
- cell proliferation (MTT) [1]: dramatically and specifically decreased the proliferation
- cell proliferation (MTT) [2]: dramatically and specifically decreased the proliferation
